Data taken from paper PMC6423038, “Deferiprone: Pan-selective Histone Lysine Demethylase Inhibition Activity and Structure Activity Relationship Study” (Scientific Reports, 2019).

Columns and labels:
VERO = experiment: Cell viability assay (MTS), antiproliferative activity; type: cell-based; settings: Chlorocebus sabaeus, 72 h
Experimental: (§1) To preliminarily profile the bioactivity of these compounds, we adopted a streamlined approach which involved screening against KDM6A at two concentrations and evaluating antiproliferative activity against three representative cell lines – MCF-7 (ER(+) BCa), MDA-MB-231 (TNBC BCa) and Vero (a non-transformed cell line as control).
(§2) The In vitro proliferation assay was performed as reported previously[15],[16]. Detailed description of the protocol used is included in the Supplementary Information.
(§3) Cell Viability Assay. All cell lines were purchased form ATCC (Manassas, VA), and they were routinely cultured in different media recommended by the supplier. MCF-7 cells were cultured in non-phenol red DMEM (Corning, Manassas, VA) fortified with 10% charcoal treated fetal bovine serum (FBS; Atlanta Biologicals, GA) and 0.2 mM glutamine (Corning, Manassas, VA), whereas MDA-MB-231, DU-145, and Vero were cultured in DMEM with 10% FBS. […] After 24 h incubation in 37 °C under 5% CO2, cells were treated with serially diluted ligands with final DMSO concentration of 1% and incubated for additional 72 h. MTS (CellTiter 96 Aqueous One Solution Cell Proliferation Assays, Promega, Madison, WI) was added to each well 2.5 h prior to recording the absorbance at 490 nm.

MDA-MB-231 = experiment: as above; type: cell-based; settings: Homo sapiens, 72 h
Experimental: as §1, §2, §3

MCF-7 = experiment: as above; type: cell-based; settings: Homo sapiens, MCF7, 72 h
Experimental: as §1, §2, §3

KDM6A (UTX) = target: T1, KDM6A (UTX) (Homo sapiens, UniProt O15550); experiment: KDM cell-free assay (AlphaScreen, BPS Bioscience); type: biochemical; settings: for IC50: Fig. 9A, read-out: IC50 (KDM6A inhibition dose response curve)
T1 construct: purchased BPS Bioscience
T1 sequence (O15550 whole entry): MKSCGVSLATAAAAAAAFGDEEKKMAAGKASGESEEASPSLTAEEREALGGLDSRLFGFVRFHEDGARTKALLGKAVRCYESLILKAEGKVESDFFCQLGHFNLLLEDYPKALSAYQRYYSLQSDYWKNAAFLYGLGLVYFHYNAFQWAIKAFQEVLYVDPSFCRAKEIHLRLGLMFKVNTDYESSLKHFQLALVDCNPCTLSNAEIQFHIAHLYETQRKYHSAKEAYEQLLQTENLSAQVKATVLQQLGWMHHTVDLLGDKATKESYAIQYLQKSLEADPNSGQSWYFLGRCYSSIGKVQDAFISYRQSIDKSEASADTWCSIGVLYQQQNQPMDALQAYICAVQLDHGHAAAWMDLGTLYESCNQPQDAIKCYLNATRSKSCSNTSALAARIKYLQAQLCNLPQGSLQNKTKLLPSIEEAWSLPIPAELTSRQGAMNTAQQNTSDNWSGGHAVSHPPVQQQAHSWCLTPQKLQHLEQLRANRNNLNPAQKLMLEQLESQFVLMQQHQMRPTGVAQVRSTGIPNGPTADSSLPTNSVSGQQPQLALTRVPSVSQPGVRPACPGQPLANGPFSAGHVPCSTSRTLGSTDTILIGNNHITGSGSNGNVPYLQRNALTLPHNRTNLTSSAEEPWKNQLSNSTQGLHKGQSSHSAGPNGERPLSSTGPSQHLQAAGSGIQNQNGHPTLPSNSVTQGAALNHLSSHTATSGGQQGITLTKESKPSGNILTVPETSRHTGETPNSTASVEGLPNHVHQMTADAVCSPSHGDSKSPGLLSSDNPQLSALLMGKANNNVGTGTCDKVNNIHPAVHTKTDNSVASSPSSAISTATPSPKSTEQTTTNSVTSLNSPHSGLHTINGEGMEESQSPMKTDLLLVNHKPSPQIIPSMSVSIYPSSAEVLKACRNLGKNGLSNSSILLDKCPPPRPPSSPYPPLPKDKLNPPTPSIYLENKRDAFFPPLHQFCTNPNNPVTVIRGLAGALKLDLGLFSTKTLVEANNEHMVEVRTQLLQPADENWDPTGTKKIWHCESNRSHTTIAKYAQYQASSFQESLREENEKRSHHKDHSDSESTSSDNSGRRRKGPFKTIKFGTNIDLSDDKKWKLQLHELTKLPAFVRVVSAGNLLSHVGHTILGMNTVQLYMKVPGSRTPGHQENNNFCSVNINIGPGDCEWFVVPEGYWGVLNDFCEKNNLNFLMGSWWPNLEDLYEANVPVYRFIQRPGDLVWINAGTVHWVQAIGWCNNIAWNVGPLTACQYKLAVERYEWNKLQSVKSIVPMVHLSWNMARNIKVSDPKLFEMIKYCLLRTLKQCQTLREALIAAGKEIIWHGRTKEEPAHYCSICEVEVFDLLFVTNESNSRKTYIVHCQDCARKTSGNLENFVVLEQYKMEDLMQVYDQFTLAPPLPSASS

[1] = system: HP1-mediated heterochromatin gene repression in CiA:Oct4 embryonic stem cells; experiment: HP1-recruitment assay dose curve (CiA:Oct4, with CIP-rapamycin), flow cytometry; type: cell-based, mouse; settings: 48 h with CIP-rapamycin recruitment of HP1; up to 10 µM
Excerpt: To elucidate the effect of DFP-based KDM inhibitors on chromatin dynamics, we profiled them in an intracellular assay which measures heterochromatin formation speed. The chromatin in vivo assay (CiA) leverages chemical induced proximity (CIP) to recruit heterochromatin protein 1 (HP1) to a modified Oct4 locus. This reporter system is composed of tandem arrays of Gal4 and zinc finger DNA binding domains in the promoter of one allele of Oct4, where the gene was replaced by a nuclear eGFP reporter. Protein fusions of Gal4-FKBP and FRB-HP1 allow for direct chemical recruitment of HP1 to the CiA:Oct4 reporter locus upon addition of the chemical inducer of proximity (CIP)-rapamycin. After CIP-rapamycin addition, HP1 is recruited to the reporter locus and brings histone methyltransferase enzymes to the chromatin reporter resulting in the repressive H3K9me3 mark being deposited (Fig. 10A). H3K9me3 deposition is the signature mark of heterochromatin and is coupled with gene silencing and loss of GFP expression (Fig. 10B)[33]. Others have shown that H3K4me3 marked nucleosomes impede H3K9 methyltransferase activity. Thus, we postulate that the active H3K4me3 mark must be removed by KDM enzymes as part of the transformation from euchromatin to heterochromatin. Inhibition of KDMs, specifically those targeting H3K4me3, would result in a decrease in H3K9me3 accumulation, which would be measured in our assay as an increase in GFP positive cells.
To determine the effect of DFP-based KDM inhibitors on HP1-mediated gene repression, we treated CiA:Oct4 embryonic stem (ES) cells with doses of representative compounds ranging from 10 µM–250 nM for 48 h with CIP-rapamycin recruitment of HP1 (Fig. 10C). […] The percentage of GFP(+) cells was determined by flow cytometry as indicated in representative histograms (Supplemental Fig. S8).
Day 0, CiA:Oct4 N118/163 cells were grown in ES media and seeded at a density of 10,000 cells per well in 100 μL media (100,000 cells mL^−1) on gelatin coated 96 well plates. Day 1, culture media was aspirated and replaced with 100 µL ES media containing +/− 6 nM rapamycin. 10 µM, 5 µM, 2.5 µM, 1 µM, 500 nM, and 250 nM concentrations of compound or DMSO were added using a TTP Labtech Mosquito HTS liquid handler. Days 2, fresh ES media +/− rapamycin and compound were added as in Day 1. Day 3, cells were washed with PBS and trypsinized using 0.25% trypsin-EDTA. Trypsin was quenched with serum. Cells were resuspended by pipetting in preparation for flow cytometry analysis.
Flow cytometry data was acquired using the Intellicyt iQue Screener and analyzed with FlowJo software.
The CiA:Oct4 recruitment system in mouse embryonic stem cells contains Gal4 and Zinc finger DNA binding arrays and a downstream nuclear eGFP gene in place of a single Oct4 allele as previously described.^30 The CiA:Oct4 N118/N163 cell line containing viral integrations of N118 and N163 plasmids (N118- nLV EF-1α-Gal-FKBPx1-HA-PGK-Blast, N163- nLV EF-1α-HP1α (CS)-Frbx2(Frb+FrbWobb)-V5-PGK-Puro) was used for inhibition of HP1-mediated heterochromatin studies. All plasmids are freely available on addgene.
HP1-Recruitment Assay Dose Curve. Day 0, CiA:Oct4 N118/163 cells were grown in ES media and seeded at a density of 10,000 cells per well in 100 µL media (100,000 cells mL^-1) on gelatin coated 96 well plates. Day 1, culture media was aspirated and replaced with 100 µL ES media containing +/- 6 nM rapamycin. 10 µM, 5 µM, 2.5 µM, 1 µM, 500 nM, and 250 nM concentrations of compound or DMSO were added using a TTP Labtech Mosquito HTS liquid handler. Days 2, fresh ES media +/- rapamycin and compound were added as in Day 1. Day 3, cells were washed with PBS and trypsinized using 0.25% trypsin-EDTA. Trypsin was quenched with serum. Cells were resuspended by pipetting in preparation for flow cytometry analysis.
Flow Cytometry and Analysis.

[2] = Table 5, values calculated by linear regression

IC50 (MDA-MB-231; Table 5)	IC50 (MCF-7; Table 5)	inhibition at 1 µM (KDM6A (UTX); Table 2)	inhibition at 10 µM (KDM6A (UTX); Table 2)	SMILES	IC50 (VERO; Table 5)	also measured
–	–	–	–	Cc1c(O)c(=O)ccn1Cc1ccc(Cn2ccc(=O)c(O)c2C)cc1 [3f]	–	IC50 (VERO; Table 6): > 50 µM; IC50 (MDA-MB-231; Table 6): 25 µM; IC50 (MCF-7; Table 6, values calculated by linear regression): 378 µM; inhibition at 1 µM (KDM6A (UTX); Table 3): 5%; inhibition at 10 µM (KDM6A (UTX); Table 3): 100%
8.1 µM	> 50 µM	–	–	COc1ccc(-c2cn(CCCCn3ccc(=O)c(O)c3C)nn2)cc1 [2k]	> 50 µM	–
–	–	–	–	Cc1c(O)c(=O)ccn1[C@H]1CC[C@H](n2ccc(=O)c(O)c2C)CC1 [3e]	–	IC50 (VERO; Table 6): > 50 µM; IC50 (MDA-MB-231; Table 6): 36.9 µM; IC50 (MCF-7; Table 6): > 50 µM; inhibition at 1 µM (KDM6A (UTX); Table 3): 5%; inhibition at 10 µM (KDM6A (UTX); Table 3): 100%
–	–	–	–	Cc1c(O)c(=O)ccn1CCCCCn1ccc(=O)c(O)c1C [3b]	–	IC50 (VERO; Table 6): > 50 µM; IC50 (MDA-MB-231; Table 6): > 50 µM; IC50 (MCF-7; Table 6): > 50 µM; inhibition at 1 µM (KDM6A (UTX); Table 3): 1%; inhibition at 10 µM (KDM6A (UTX); Table 3): 99%
9.6 µM	–	–	–	COc1ccccc1-c1cn(CCCCn2ccc(=O)c(O)c2C)nn1 [2g]	> 50 µM	IC50 (MCF-7; [2]): 66.1 µM
11.8 µM	> 50 µM	–	–	Cc1cccc(-c2cn(CCCCCn3ccc(=O)c(O)c3C)nn2)c1 [2d]	3.6 µM	–
–	–	–	–	Cc1c(O)c(=O)ccn1CCCCn1ccc(=O)c(O)c1C [3a]	–	IC50 (VERO; Table 6): > 50 µM; IC50 (MDA-MB-231; Table 6): > 50 µM; IC50 (MCF-7; Table 6): > 50 µM; inhibition at 1 µM (KDM6A (UTX); Table 3): 4%; inhibition at 10 µM (KDM6A (UTX); Table 3): 100%
7.5 µM	–	7%	100%	COc1cccc(-c2cn(CCCCn3ccc(=O)c(O)c3C)nn2)c1 [2i]	> 50 µM	IC50 (MCF-7; [2]): 54.8 µM
19.1 µM	> 50 µM	3%	99%	COc1ccccc1-c1cn(CCCCCn2ccc(=O)c(O)c2C)nn1 [2h]	> 50 µM	–
18.3 µM	> 50 µM	16%	100%	Cc1c(O)c(=O)ccn1CCCCCn1cc(-c2ccccc2F)nn1 [2m]	12.7 µM	–
–	–	12%	98%	Cc1c(O)c(=O)ccn1CCCCCCn1cc(-c2ccccc2)nn1 [1e]	–	IC50 (VERO; Table 4): > 35 µM; IC50 (MDA-MB-231; Table 4): 12.5 µM; IC50 (MCF-7; Table 4): > 50 µM
10.9 µM	–	4%	100%	Cc1cccc(-c2cn(CCCCn3ccc(=O)c(O)c3C)nn2)c1 [2c]	5.2 µM	IC50 (MCF-7; [2]): 62.7 µM
12.7 µM	> 50 µM	–	–	Cc1ccccc1-c1cn(CCCCCn2ccc(=O)c(O)c2C)nn1 [2b]	5.8 µM	–
6.8 µM	> 50 µM	5%	100%	Cc1c(O)c(=O)ccn1CCCCCn1cc(-c2cccc(F)c2)nn1 [2n]	22.9 µM	–
–	–	12%	96%	Cc1c(O)c(=O)ccn1CCn1cc(-c2ccccc2)nn1 [1a]	–	IC50 (VERO; Table 4): > 100 µM; IC50 (MDA-MB-231; Table 4): > 50 µM; IC50 (MCF-7; Table 4): > 50 µM; inhibition of heterochromatin formation [1]: did not inhibit heterochromatin formation
12.5 µM	> 50 µM	–	–	Cc1c(O)c(=O)ccn1CCCCCn1cc(-c2ccc(N(C)C)cc2)nn1 [2r]	> 50 µM	–
18.8 µM	> 50 µM	15%	99%	Cc1c(O)c(=O)ccn1CCCCCn1cc(-c2ccccc2C(F)(F)F)nn1 [2p]	13.3 µM	–
3.6 µM	> 50 µM	10%	100%	Cc1c(O)c(=O)ccn1CCCCCn1cc(-c2ccc(F)cc2)nn1 [2o]	38.8 µM	–
16.4 µM	–	6%	100%	Cc1ccccc1-c1cn(CCCCn2ccc(=O)c(O)c2C)nn1 [2a]	11.6 µM	IC50 (MCF-7; [2]): 42.5 µM
9.5 µM	> 50 µM	–	–	Cc1c(O)c(=O)ccn1CCCCn1cc(-c2ccc(N(C)C)cc2)nn1 [2q]	> 50 µM	–
1.7 µM	> 50 µM	15%	99%	Cc1c(O)c(=O)ccn1CCCCCCn1cc(-c2ccc(-c3ccncc3)cc2)nn1 [2u]	66.9 µM	IC50 (KDM6A (UTX)): 5.1 µM
–	–	–	–	Cc1c(O)c(=O)ccn1CCCCCCCn1ccc(=O)c(O)c1C [3d]	–	IC50 (VERO; Table 6): > 50 µM; IC50 (MDA-MB-231; Table 6): > 50 µM; IC50 (MCF-7; Table 6): > 50 µM; inhibition at 1 µM (KDM6A (UTX); Table 3): 3%; inhibition at 10 µM (KDM6A (UTX); Table 3): 100%
–	–	–	–	Cc1c(O)c(=O)ccn1CCCCCCn1ccc(=O)c(O)c1C [3c]	–	IC50 (VERO; Table 6): > 50 µM; IC50 (MDA-MB-231; Table 6): > 50 µM; IC50 (MCF-7; Table 6): > 50 µM; inhibition at 1 µM (KDM6A (UTX); Table 3): 2%; inhibition at 10 µM (KDM6A (UTX); Table 3): 100%
> 50 µM	> 50 µM	15%	99%	Cc1c(O)c(=O)ccn1CCCCCn1cc(-c2ccccn2)nn1 [2s]	> 50 µM	–
7.4 µM	> 50 µM	13%	100%	Cc1ccc(-c2cn(CCCCn3ccc(=O)c(O)c3C)nn2)cc1 [2e]	4.1 µM	–
9.6 µM	> 50 µM	4%	100%	COc1ccc(-c2cn(CCCCCn3ccc(=O)c(O)c3C)nn2)cc1 [2l]	> 50 µM	–
–	–	12%	100%	Cc1c(O)c(=O)ccn1CCCCCn1cc(-c2ccccc2)nn1 [1d]	–	IC50 (VERO; Table 4): > 50 µM; IC50 (MDA-MB-231; Table 4): 11.4 µM; IC50 (MCF-7; Table 4): > 50 µM; IC50 (KDM6A (UTX)): 3.3 µM
